Reference: US20230086702A1, “SUBSTITUTED 2-AMINO-PYRAZOLYL-[1,2,4]TRIAZOLO[1,5A]PYRIDINE DERIVATIVES AND USE THEREOF” (The Johns Hopkins University, priority 2019, published 2023)

Columns and labels:
LZK = target: T1, LZK (Homo sapiens, UniProt O43283); experiment: LZK biochemical assay (TR-FRET, MKK7 phosphorylation); conditions: LZK catalytic domain, MKK7 substrate, 15 μM ATP
T1 construct: 10 nM LZK, catalytic domain, Carna Biosiences in assay buffer; purchased Carna Biosciences ('Carna Biosiences' [sic])
T1 sequence (O43283 168-409 limits assumed): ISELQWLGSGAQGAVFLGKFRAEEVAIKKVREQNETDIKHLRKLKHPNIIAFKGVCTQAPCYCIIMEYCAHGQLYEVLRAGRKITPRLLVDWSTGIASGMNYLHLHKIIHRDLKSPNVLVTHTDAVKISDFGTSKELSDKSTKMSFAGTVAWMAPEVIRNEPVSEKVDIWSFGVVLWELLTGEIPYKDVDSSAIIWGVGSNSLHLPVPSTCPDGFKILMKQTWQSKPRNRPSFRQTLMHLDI

DLK = target: T2, DLK (Homo sapiens, UniProt Q12852); experiment: DLK biochemical assay (TR-FRET, MKK7 phosphorylation); conditions: DLK catalytic domain, MKK7 substrate, 60 μM ATP
T2 construct: 10 nM DLK, catalytic domain, Carna Biosiences; purchased Carna Biosciences ('Carna Biosiences' [sic])
T2 sequence (Q12852 125-366 limits assumed): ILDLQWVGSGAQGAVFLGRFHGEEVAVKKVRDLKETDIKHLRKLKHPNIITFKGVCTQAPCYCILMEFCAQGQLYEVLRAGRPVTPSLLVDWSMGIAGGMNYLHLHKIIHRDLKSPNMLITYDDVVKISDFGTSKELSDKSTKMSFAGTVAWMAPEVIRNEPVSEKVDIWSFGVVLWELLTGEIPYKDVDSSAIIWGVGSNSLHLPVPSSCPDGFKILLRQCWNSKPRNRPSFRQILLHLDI
In short: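 TR-FRET read-out (ratio of 665 nm acceptor to Eu donor channel) tracks MKK7 T275/S277 phosphorylation by DLK, using Eu-labelled anti-phospho-MKK7 and XL665-labelled anti-His on His-MKK7. Reactions were stopped and detected in pH 7.5 Tris buffer containing 100 mM EDTA, 100 mM NaCl, 200 mM KF and 0.01% Tween 20.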

| Structure (SMILES) | IC50 (LZK) [nM] | IC50 (DLK) [nM] |
| --- | --- | --- |
| CCC(c1ccc(OCC(F)(F)F)nc1)n1cc(-c2cc(C(=O)N[C@@H](C)CC)c3nc(N)nn3c2)cn1 (single isomer, unassigned) [Example I-87] | 16 | 1.3 |
| CC[C@H](C)NC(=O)c1cc(-c2cnn(C(c3ccc(C(F)F)nc3)C3CC3)c2)cc2nc(N)nn12 (single isomer, unassigned) [Example I-100] | 4.3 | 2.8 |
| CC[C@H](C)NC(=O)c1cc(-c2cnn(C3CN(C)C3)c2)cn2nc(N)nc12 [Example I-4] | 26 | 84 |
| CCC(c1ccc(C(F)F)nc1)n1cc(-c2cc(C(=O)N[C@@H](C)CC)c3nc(N)nn3c2)cn1 (mixture of isomers) [Example I-64, 2-Amino-N-[(2S)-butan-2-yl]-6-(1-{1-[6-(difluoromethyl)pyridin-3-yl]propyl}-1H-pyrazol-4-yl)[1,2,4]triazolo[1,5-a]pyridine-8-carboxamide] | 7 | 1.7 |
| CC[C@H](C)NC(=O)c1cc(-c2cnn(C3CCN(CC4COC4)CC3)c2)cn2nc(N)nc12 (single isomer, unassigned) [Example I-9] | 6.9 | 80 |
| CC[C@H](C)NC(=O)c1cc(-c2cnn(C(c3ccc(C(F)(F)F)nc3)C3CC3)c2)cc2nc(N)nn12 (single isomer, unassigned) [Example I-108] | 17 | 28 |
| CCC(c1ccc(N2CCOCC2)cc1)n1cc(-c2cc(C(=O)N[C@@H](C)CC)c3nc(N)nn3c2)cn1 (mixture of isomers) [Example I-47, 2-Amino-N-[(2S)-butan-2-yl]-6-(1-{1-[4-(morpholin-4-yl)phenyl]propyl}-1H-pyrazol-4-yl)[1,2,4]triazolo[1,5-a]pyridine-8-carboxamide] | 40 | 3.8 |
| CC[C@H](C)NC(=O)c1cc(-c2cnn(C(c3ccccc3)C3(C)CC3)c2)cn2nc(N)nc12 (single isomer, unassigned) [Example I-30] | 310 | 140 |
| CC[C@H](C)NC(=O)c1cc(-c2cnn(C(c3ccc(C(F)F)nc3)C(C)C)c2)cn2nc(N)nc12 (single isomer, unassigned) [Example I-68] | 43 | 14 |
| CCC(c1ccc(OCC(F)(F)F)nc1)n1cc(-c2cc(C(=O)N[C@@H](C)CC)n3nc(N)nc3c2)cn1 (single isomer, unassigned) [Example I-115] | 20 | 4.2 |
| CC[C@H](C)NC(=O)c1cc(-c2cnn(C3CCOc4ccccc43)c2)cc2nc(N)nn12 (mixture of isomers) [Example I-16, 2-Amino-N-[(2S)-butan-2-yl]-7-[1-(3,4-dihydro-2H-chromen-4-yl)-1H-pyrazol-4-yl][1,2,4]triazolo[1,5-a]pyridine-5-carboxamide] | 3.3 | 22 |
| CC[C@H](C)NC(=O)c1cc(-c2cnn(C(COC)c3ccccc3)c2)cn2nc(N)nc12 (single isomer, unassigned) [Example I-42] | 37 | 9.8 |
| CC[C@H](C)NC(=O)c1cc(-c2cnn(C3CCc4ccccc43)c2)cn2nc(N)nc12 (single isomer, unassigned) [Example I-15] | 7.8 | 31 |
| CC[C@H](C)NC(=O)c1cc(-c2cnn(C(CC(F)(F)F)c3ccccc3)c2)cn2nc(N)nc12 (single isomer, unassigned) [Example I-38] | 91 | 1.3 |
| CC[C@H](C)NC(=O)c1cc(-c2cnn(C(c3ccccc3)C3CCOCC3)c2)cc2nc(N)nn12 (single isomer, unassigned) [Example I-53] | 24 | 11 |
| CC[C@H](C)NC(=O)c1cc(-c2cnn([C@@H](CC)c3ccc(F)cc3)c2)cc2nc(N)nn12 (single isomer, unassigned) [Example I-54] | 8.5 | 1.9 |
| CC[C@H](C)NC(=O)c1cc(-c2cnn(C(c3ccccc3)C(C)(C)C)c2)cn2nc(N)nc12 (mixture of isomers) [Example I-34, 2-Amino-N-[(2S)-butan-2-yl]-6-{1-[2,2-dimethyl-1-phenylpropyl]-1H-pyrazol-4-yl}[1,2,4]triazolo[1,5-a]pyridine-8-carboxamide] | 520 | 9.5 |
| CC[C@H](C)NC(=O)c1cc(-c2cnn(C(c3ccccc3)C3(C)CC3)c2)cn2nc(N)nc12 (mixture of isomers) [Example I-28, 2-Amino-N-[(2S)-butan-2-yl]-6-{1[(1-methylcyclopropyl)(phenyl)methyl]-1H-pyrazol-4-yl}[1,2,4]triazolo[1,5-a]pyridine-8-carboxamide] | 380 | 9.2 |
| CC[C@H](C)NC(=O)c1cc(-c2cnn([C@H](c3ccc(C(F)(F)F)nc3)C(C)C)c2)cn2nc(N)nc12 (single isomer, unassigned) [Example I-75] | 2.4 | 1.1 |
| CC[C@H](C)NC(=O)c1cc(-c2cnn(C(c3ccc(OCC(F)(F)F)nc3)C3CC3)c2)cc2nc(N)nn12 (mixture of isomers) [Example I-119, 2-Amino-N-[(2S)-butan-2-yl]-7-(1-{cyclopropyl[6-(2,2,2-trifluoroethoxy)pyridin-3-yl]methyl}-1H-pyrazol-4-yl)[1,2,4]triazolo[1,5-a]pyridine-5-carboxamide] | 36 | 6.5 |

More lines, now with the values ahead:

| IC50 (LZK) [nM] | IC50 (DLK) [nM] | Structure (SMILES) |
| --- | --- | --- |
| 690 | 62 | CC(C)C(c1cncc(Cl)c1)n1cc(-c2cc(C(=O)NC(C)(C)CO)c3nc(N)nn3c2)cn1 (single isomer, unassigned) [Example I-174, 2-Amino-6-{1-[1-(5-chloropyridin-3-yl)-2-methylpropyl]-1H-pyrazol-4-yl}-N-(1-hydroxy-2-methylpropan-2-yl)[1,2,4]triazolo[1,5-a]pyridine-8-carboxamide] |
| 540 | 51 | CC(C)C(c1ccc(F)cc1)n1cc(-c2cc(C(=O)N[C@@H](C)CO)c3nc(N)nn3c2)cn1 (single isomer, unassigned) [Example I-161] |
| 130 | 4.3 | CC(C)C(c1ccc(F)cc1)n1cc(-c2cc(C(=O)N[C@@H](C)CO)c3nc(N)nn3c2)cn1 (mixture of isomers) [Example I-160, 2-Amino-6-{1-[1-(4-fluorophenyl)-2-methylpropyl]-1H-pyrazol-4-yl}-N-[(2S)-1-hydroxypropan-2-yl][1,2,4]triazolo[1,5-a]pyridine-8-carboxamide] |
| 6 | 1.7 | Nc1nc2cc(-c3cnn(C(c4ccc(C(F)(F)F)nc4)C4CCOCC4)c3)cc(C(=O)N[C@H]3CCOC3)n2n1 (mixture of isomers) [Example I-183, 2-Amino-N-[(3S)-tetrahydrofuran-3-yl]-7-(1-{tetrahydro-2H-pyran-4-yl[6-(trifluoromethyl)pyridin-3-yl]methyl}-1H-pyrazol-4-yl)[1,2,4]triazolo[1,5-a]pyridine-5-carboxamide] |
| 110 | 110 | CC(CF)NC(=O)c1cc(-c2cnn(C3CCOc4ccccc43)c2)cn2nc(N)nc12 (single isomer, unassigned) [Example I-145, 2-Amino-6-[1-(3,4-dihydro-2H-chromen-4-yl)-1H-pyrazol-4-yl]-N-(1-fluoropropan-2-yl)[1,2,4]triazolo[1,5-a]pyridine-8-carboxamide] |
| 79 | 84 | CC(CF)NC(=O)c1cc(-c2cnn(C3CCOc4ccccc43)c2)cn2nc(N)nc12 (mixture of isomers) [Example I-144, 2-Amino-6-{1-(3,4-dihydro-2H-1-benzopyran-4-yl)-1H-pyrazol-4-yl}-N-[1-fluoropropan-2-yl][1,2,4]triazolo[1,5-a]pyridine-8-carboxamide] |
| 3.4 | 0.6 | CC[C@@H](c1ccc(OC(F)(F)F)nc1)n1cc(-c2cc(C(=O)N[C@@H](C)CO)c3nc(N)nn3c2)cn1 (single isomer, unassigned) [Example I-158, 2-Amino-N-[(25)-1-hydroxypropan-2-yl]-6-(1-{1-[6-(trifluoromethoxy)pyridin-3-yl]propyl}-1H-pyrazol-4-yl)[1,2,4]triazolo[1,5-a]pyridine-8-carboxamide] |
| 83 | 1.3 | CC(C)[C@@H](c1ccc(F)cc1)n1cc(-c2cc(C(=O)N[C@@H](C)CO)c3nc(N)nn3c2)cn1 (single isomer, unassigned) [Example I-162] |
| 270 | 60 | CC[C@H](C)NC(=O)c1cc(-c2cnn(C(c3c(F)cncc3F)C(C)C)c2)cc2nc(N)nn12 (single isomer, unassigned) [Example I-124] |
| 18 | 2.6 | CCC(c1ccc(C(F)(F)F)nc1)n1cc(-c2cc(C(=O)N[C@H]3CCOC3)n3nc(N)nc3c2)cn1 (mixture of isomers) [Example I-177, 2-Amino-N-[(3S)-tetrahydrofuran-3-yl]-7-(1-{1-[6-(trifluoromethyl)pyridin-3-yl]propyl}-1H-pyrazol-4-yl)[1,2,4]triazolo[1,5-a]pyridine-5-carboxamide] |
